Tests used:
CXCR2-expressing cells [1] = settings: known; cited from earlier work
CXCR2-expressing cells [2] = assay: In vivo migration inhibitory activity test on CXCR2-expressing cells, OCUM-12 orthotopic transplantation (prevention model); design: species or system mouse; settings: navarixin orally 100 mg/kg/day, once a day for 5 consecutive days followed by 2-day withdrawal
Description: The stomachs after measurement of the tumor size in [3-1] above were excised and fixed overnight at room temperature with a 10% neutral buffered formalin solution (Wako Pure Chemical Industries, Ltd., Japan), followed by replacement with PBS. Then, paraffin embedding and section preparation were outsourced to Applied Medical Research Laboratory, Japan. The prepared gastric tumor sections were immunohistologically stained with an anti-CXCR2 antibody to evaluate in vivo CXCR2 cell migration inhibitory activity. The sections were deparaffinized and rehydrated, and then treated to inactivate endogenous peroxidase. After antigen activation treatment, the sections were blocked with PBS containing 2% skimmed milk and 0.1% Tween-20, and reacted overnight at 4° C. with an anti-CXCR2 antibody (Biorbyt) as a primary antibody, which had been diluted to 0.3 μg/mL with the blocking solution. […]
Navarixin is among small molecular compounds that act on CXCR2 and inhibit CXCL1-CXCR2 signaling. […] Then, using a model with OCUM-12 orthotopic transplantation, the migration inhibition of CXCR2-expressing cells and antitumor activity were evaluated in vivo for Navarixin. […]
The dose-response relationship between antibody dose and in vivo antitumor activity or CXCR2 migration inhibitory activity was evaluated in a xenograft prevention model with OCUM-12 orthotopic transplantation. […]

[3] = system: OCUM-12 gastric cancer cell line; assay: Antitumor activity test, model with OCUM-12 orthotopic transplantation (prevention model); format: in vivo, mouse; settings: orally 100 mg/kg/day, once a day for 5 consecutive days followed by 2-day withdrawal
Protocol: A model with OCUM-12 orthotopic transplantation was prepared to evaluate the above 4 types of candidate antibodies for their in vivo CXCR2 migration inhibitory activity and antitumor activity in a xenograft model with OCUM-12 orthotopic transplantation.
For use as mice, female nude mice (BALB/cAJcl-nu/nu) at 5 to 6 weeks of age were purchased from CLEA Japan, Inc., Japan. For use as human cancer cells, a gastric cancer cell line, OCUM-12, was provided by University Public Corporation Osaka, Japan. […]
On the day following the above transplantation, the mice were randomized into groups (8 or 6 mice per group) and intraperitoneally administered with PBS as a control and with 4 types of candidate antibodies (1A-7H10, 4A-2F7, 5A-5E11 and 028-8-12) and 3 types of non-candidate antibodies (1A-3C6, 1A-2H3 and 4A-5B11) at a dose of 20 mg/kg. […] After 3 weeks had passed from the transplantation, the mice were sacrificed, and the short- and long-axis diameters of tumors formed in their gastric walls were each measured with a caliper. The tumor size was calculated according to the following: 1/2 short-axis diameter (mm)×1/2 long-axis diameter (mm)×3.14. […]
The humanized antibodies were evaluated for their in vivo antitumor activity and CXCR2 migration inhibitory activity in a xenograft model with OCUM-12 orthotopic transplantation. […]

CC[C@@H](Nc1c(Nc2cccc(C(=O)N(C)C)c2O)c(=O)c1=O)c1ccc(C)o1 [Navarixin, reference compound]
Migration of CXCR2-expressing cells in vitro (CXCR2-expressing cells [1]): known to inhibit the migration of CXCR2-expressing cells in vitro | Migration of CXCR2-expressing cells in vivo (CXCR2-expressing cells [2]): significantly inhibit the migration of CXCR2-expressing cells | Antitumor activity [3]: no antitumor activity was observed
